US20120225061A1, “TETRASUBSTITUTED CYCLOHEXYL COMPOUNDS AS KINASE INHIBITORS” (priority 2011, published 2012)

How the values were obtained:
Pim1 kinase = Pim1 kinase (Homo sapiens, UniProt P11309); test: KinaseGlo Pim1 ATP depletion assay; assay type: biochemical; conditions: Table 4, 2.5 nM PIM1, 20 μM ATP, 40 μM BAD peptide
Experimental: The activity of PIM1 is measured using a luciferase-luciferin based ATP detection reagent to quantify ATP depletion resulting from kinase-catalyzed phosphoryl transfer to a peptide substrate. Compounds to be tested are dissolved in 100% DMSO and directly distributed into white 384-well plates at 0.5 μl per well. […] After 15 minutes, 10 μl of 40 μM ATP in assay buffer is added. […] The reaction is performed until approximately 50% of the ATP is depleted, then stopped with the addition of 20 μl KinaseGlo Plus (Promega Corporation) solution. The stopped reaction is incubated for 10 minutes and the remaining ATP detected via luminescence on the Victor2 (Perkin Elmer).

Pim3 kinase = Pim3 kinase (Homo sapiens, UniProt Q86V86); test: KinaseGlo Pim3 ATP depletion assay; assay type: biochemical; conditions: Table 4, 40 μM ATP, 100 μM BAD peptide
Experimental: The activity of PIM3 is measured using a luciferase-luciferin based ATP detection reagent to quantify ATP depletion resulting from kinase-catalyzed phosphoryl transfer to a peptide substrate. Compounds to be tested are dissolved in 100% DMSO and directly distributed into white 384-well plates at 0.5 μl per well. […] After 15 minutes, 10 μl of 80 μM ATP in assay buffer is added. Final assay concentrations are 5 nM PIM1, 40 μM ATP, 100 μM BAD peptide and 2.5% DMSO. The reaction is performed until approximately 50% of the ATP is depleted, then stopped by the addition of 20 μl KinaseGlo Plus (Promega Corporation) solution. The stopped reaction is incubated for 10 minutes and the remaining ATP detected via luminescence on the Victor2 (Perkin Elmer).

Pim2 kinase = Pim2 kinase (Homo sapiens, UniProt Q9P1W9); test: KinaseGlo Pim2 ATP depletion assay; assay type: biochemical; conditions: Table 4, 5 nM PIM2, 4 μM ATP, 10 μM BAD peptide
[1] = test system: KMS11 (human myeloma cell line); test: Cell proliferation assay (CellTiter-Glo) in KMS11 cells; assay type: cell-based; conditions: KMS-11, 72 h, Table 4, 3 days, read-out: KMS11-luc EC50
Summary of the method: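 KMS11 cells at 2000 per well in IMDM/10% FBS were exposed to compound for 3 days. Viability was read by CellTiter-Glo luminescence.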

Pim2 kinase, sequence (Q9P1W9 whole entry): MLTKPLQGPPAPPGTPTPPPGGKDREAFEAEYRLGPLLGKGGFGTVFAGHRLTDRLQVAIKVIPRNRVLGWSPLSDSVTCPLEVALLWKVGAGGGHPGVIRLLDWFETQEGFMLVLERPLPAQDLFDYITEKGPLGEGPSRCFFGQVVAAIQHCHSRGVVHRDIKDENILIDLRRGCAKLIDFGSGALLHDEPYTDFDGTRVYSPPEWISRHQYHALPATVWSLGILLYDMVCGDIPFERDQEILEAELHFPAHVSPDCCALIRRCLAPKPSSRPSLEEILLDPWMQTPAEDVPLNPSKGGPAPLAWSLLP
Pim1 kinase, sequence (P11309 whole entry): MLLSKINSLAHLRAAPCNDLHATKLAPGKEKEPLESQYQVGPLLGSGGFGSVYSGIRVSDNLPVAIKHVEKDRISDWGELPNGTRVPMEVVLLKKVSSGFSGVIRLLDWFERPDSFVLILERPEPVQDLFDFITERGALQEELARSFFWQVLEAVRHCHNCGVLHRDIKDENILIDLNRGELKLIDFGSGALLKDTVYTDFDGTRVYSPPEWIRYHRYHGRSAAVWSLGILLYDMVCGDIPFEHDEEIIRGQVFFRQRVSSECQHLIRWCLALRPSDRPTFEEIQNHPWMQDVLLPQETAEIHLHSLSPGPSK

Row | IC50 (Pim1 kinase) | IC50 (Pim3 kinase) | IC50 (Pim2 kinase) | EC50 [1] | Structure (SMILES)
1 | 0.0004 µM | 0.0014 µM | 0.0013 µM | 0.87 µM | C[C@H]1C[C@@H](c2ccncc2NC(=O)c2nc(-c3c(F)cccc3F)c(F)cc2N)C[C@@H](O)[C@]1(C)O [Example 48, 3-amino-6-(2,6-difluorophenyl)-N-(4-((1R,3R,4R,5S)-3,4-dihydroxy-4,5-dimethylcyclohexyl)pyridin-3-yl)-5-fluoropicolinamide]
2 | 0.0011 µM | 0.0022 µM | 0.0021 µM | 4.87 µM | C[C@H]1C[C@@H](c2ccncc2NC(=O)c2nc(-c3c(F)cncc3F)ccc2N)C[C@@H](O)[C@]1(C)O [Example 141, 5-amino-N-(4-((1R,3R,4R,5S)-3,4-dihydroxy-4,5-dimethylcyclohexyl)pyridin-3-yl)-3′,5′-difluoro-2,4′-bipyridine-6-carboxamide]
3 | 0.152 µM | 0.245 µM | 0.769 µM | ≥ 10 µM | C[C@H]1C[C@@H](c2ccncc2NC(=O)c2nc(-c3ccnnc3)ccc2N)C[C@@H](O)[C@]1(C)O [Example 142, 3-amino-N-(4-((1R,3R,4R,5S)-3,4-dihydroxy-4,5-dimethylcyclohexyl)pyridin-3-yl)-6-(pyridazin-4-yl)picolinamide]

The next lines start with the molecule.

Row | Structure (SMILES) | IC50 (Pim1 kinase) | IC50 (Pim3 kinase) | IC50 (Pim2 kinase) | EC50 [1]
4 | C[C@@H]1C[C@H](c2ccncc2NC(=O)c2cccc(-c3c(F)cccc3F)n2)C[C@H](O)[C@@]1(C)O [Example 57, 6-(2,6-difluorophenyl)-N-(4-((1S,3S,4S,5R)-3,4-dihydroxy-4,5-dimethylcyclohexyl)pyridin-3-yl) picolinamide] | 0.0151 µM | 0.102 µM | 0.227 µM | 6.62 µM
5 | CC(=O)OC[C@]1(O)[C@H](C)C[C@H](c2ccncc2NC(=O)c2ccc(F)c(-c3c(F)cccc3F)n2)C[C@@H]1O [Example 44, ((1R,2S,4S,6R)-4-(3-(6-(2,6-difluorophenyl)-5-fluoropicolinamido)pyridin-4-yl)-1,2-dihydroxy-6-methylcyclohexyl) methylacetate] | 0.0086 µM | 0.0293 µM | 0.0442 µM | ≥ 10 µM
6 | C[C@H]1C[C@@H](c2ccncc2NC(=O)c2ccc(F)c(-c3c(F)ccc(N)c3F)n2)C[C@@H](O)[C@]1(C)O [Example 56, 6-(3-amino-2,6-difluorophenyl)-N-(4-((1R,3R,4R,5S)-3,4-dihydroxy-4,5-dimethylcyclohexyl)pyridin-3-yl)-5-fluoropicolinamide] | 0.0004 µM | 0.0029 µM | 0.0053 µM | 7.96 µM
